Literature values in patent US10159658B2, “Compositions comprising statins, biguanides and further agents for reducing cardiometabolic risk” (ELCELYX THERAPEUTICS, INC., priority 2011, dated 2018).

Tested on: atherosclerotic plaque volume
Conditions: diabetics; PERISCOPE, Nissen et al. JAMA 2008

In the case of `CCC1=C(C)CN(C(=O)NCCc2ccc(S(=O)(=O)NC(=O)N[C@H]3CC[C@H](C)CC3)cc2)C1=O` [Glimepiride], the “change of atherosclerotic plaque volume over time” value is listed as 0.73%.
